Results on 30 compounds are retold here after ChEMBL document CHEMBL1138605, “Identification of 3-substituted N-benzhydryl-nortropane analogs as nociceptin receptor ligands for the management of cough and anxiety” (Bioorg Med Chem Lett, 2009).

Data set [1] addresses T1, Nuclear receptor subfamily 1 group I member 2 (Homo sapiens, UniProt O75469).
T1 sequence (O75469 whole entry): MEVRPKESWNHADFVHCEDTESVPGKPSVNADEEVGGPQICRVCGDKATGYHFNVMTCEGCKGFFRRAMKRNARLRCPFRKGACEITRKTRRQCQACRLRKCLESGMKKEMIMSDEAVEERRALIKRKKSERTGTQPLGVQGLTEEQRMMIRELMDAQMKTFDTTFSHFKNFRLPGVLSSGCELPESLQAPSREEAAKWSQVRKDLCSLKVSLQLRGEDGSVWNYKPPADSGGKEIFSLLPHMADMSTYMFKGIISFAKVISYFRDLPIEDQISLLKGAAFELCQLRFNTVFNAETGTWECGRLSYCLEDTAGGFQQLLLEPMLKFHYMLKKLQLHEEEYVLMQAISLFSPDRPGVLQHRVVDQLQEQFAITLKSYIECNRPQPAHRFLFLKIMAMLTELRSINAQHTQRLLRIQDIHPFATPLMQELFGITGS
The data set can be described thus: Activity at PXR in human hepatocytes assessed as induction of CYP3A4 activity at 1 uM relative rifampicin. In kind it is cell-based, Hepatocyte.

For data set [2], the target named is T2, Nociceptin receptor (Homo sapiens, UniProt P41146). The data set can be described thus: Displacement of [125I][Tyr14]nociceptin from human cloned ORL1 receptor expressed in CHO cells. In kind it is cell-based. Background: Loss of bound radioactivity is the signal in a displacement assay; it reports binding, not function.
T2 sequence (P41146 whole entry): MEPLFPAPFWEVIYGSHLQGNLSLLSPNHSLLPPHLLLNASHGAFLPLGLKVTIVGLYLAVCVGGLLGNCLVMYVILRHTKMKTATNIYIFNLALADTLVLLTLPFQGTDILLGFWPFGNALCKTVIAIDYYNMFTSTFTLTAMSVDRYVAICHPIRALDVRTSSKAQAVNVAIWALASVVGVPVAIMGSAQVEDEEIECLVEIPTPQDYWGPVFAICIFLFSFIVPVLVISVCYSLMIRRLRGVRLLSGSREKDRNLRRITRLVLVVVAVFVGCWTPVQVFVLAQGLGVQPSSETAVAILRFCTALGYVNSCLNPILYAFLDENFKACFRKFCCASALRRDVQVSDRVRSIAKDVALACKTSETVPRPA
For data set [3], the target named is T3, Mu-type opioid receptor (Homo sapiens, UniProt P35372). The data set can be described thus: Displacement of [3H]diprenorphine from human mu opioid receptor expressed in CHO cells. In kind it is cell-based.
T3 sequence (P35372 whole entry): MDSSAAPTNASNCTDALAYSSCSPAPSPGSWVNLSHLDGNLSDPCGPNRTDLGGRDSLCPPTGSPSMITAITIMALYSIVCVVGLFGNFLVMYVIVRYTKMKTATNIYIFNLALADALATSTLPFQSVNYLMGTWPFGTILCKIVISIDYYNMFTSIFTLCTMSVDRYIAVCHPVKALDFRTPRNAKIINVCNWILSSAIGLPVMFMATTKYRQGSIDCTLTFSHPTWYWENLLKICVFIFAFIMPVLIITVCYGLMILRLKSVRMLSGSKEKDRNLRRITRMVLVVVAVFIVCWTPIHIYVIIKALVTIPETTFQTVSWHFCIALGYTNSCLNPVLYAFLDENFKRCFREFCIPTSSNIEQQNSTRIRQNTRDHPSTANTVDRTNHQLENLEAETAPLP
For data set [4], the species on record is Homo sapiens. The data set can be described thus: Selectivity for human cloned ORL1 receptor over human mu opioid receptor.
Data set [5] addresses T3, Mu-type opioid receptor. The data set can be described thus: Agonist activity at human mu opioid receptor assessed as stimulation of GTPgammaS binding at 10 uM. In kind it is functional.
The target of data set [6] is T2, Nociceptin receptor. The data set can be described thus: Agonist activity at human cloned ORL1 receptor assessed as stimulation of GTPgammaS binding. In kind it is functional.
Data set [7] deals with T3, Mu-type opioid receptor. In words: Agonist activity at human mu opioid assessed as stimulation of GTPgammaS binding. In kind it is functional.
The target in data set [8] is T2, Nociceptin receptor. The data set can be described thus: Agonist activity at human cloned ORL1 receptor assessed as stimulation of GTPgammaS binding at 10 uM. In kind it is functional. (GTPγS resists hydrolysis and so accumulates on activated G proteins.)

As a reminder, the Ki is the dissociation constant of the complex between target and ligand, obtained from inhibition or displacement. The low end stands for tighter binding, the high end for weaker binding. In the case of `Cc1ccc([C@@]2(C(N)=O)C[C@H]3CC[C@@H](C2)N3C(c2ccccc2Cl)c2ccccc2Cl)nc1`, the Ratio in data set [1] was determined as 0.4. Moreover, the values for the Ki in data set [2] and in data set [3] were 6 nM and 26 nM, respectively.

Turning to `NC(=O)[C@]1(c2ccc(O)cn2)C[C@H]2CC[C@@H](C1)N2C(c1ccccc1Cl)c1ccccc1Cl`, in data set [4], the fold change (FC) amounted to 4. In data set [2], this compound came in with a Ki of 72 nM.

`COC(=O)NC1(c2ccc(F)cn2)C[C@H]2CC[C@H](C1)N2C(c1ccccc1Cl)c1ccccc1Cl` (relative stereo): the Ratio in data set [1] is 1.38. Also, the fold change (FC) in data set [4] came out at 74. Moreover, the Ki in data set [2] came to 12 nM; in data set [3], 887 nM.

`NC(=O)[C@]1(c2ccncc2)C[C@H]2CC[C@@H](C1)N2C(c1ccccc1Cl)c1ccccc1Cl` had a fold change (FC) in data set [4] of 20. Besides, the figures for the Ki in data set [2] and in data set [3] were 79 nM and 265 nM, respectively.

In the case of `CC(=O)N[C@]1(c2ccc(F)cn2)C[C@H]2CC[C@@H](C1)N2C(c1ccccc1Cl)c1ccccc1Cl`, the Ratio in data set [1] is given as 1.47. In data set [4], this compound gave a fold change (FC) of 60. For the same compound, the Ki in data set [2] amounted to 10 nM; in data set [3], 601 nM.

As for `COC(=O)N[C@]1(c2ccc(Cl)cn2)C[C@H]2CC[C@@H](C1)N2C(c1ccccc1Cl)c1ccccc1Cl`, the Ratio in data set [1] came to 1.06. This compound also registered a fold change (FC) in data set [4] of 74. Besides, the results for the Ki in data set [2] and in data set [3] were 12 nM and 961 nM, respectively.

For the compound `NC(=O)[C@]1(c2ccc(C(F)(F)F)cn2)C[C@H]2CC[C@@H](C1)N2C(c1ccccc1Cl)c1ccccc1Cl`, the fold change (FC) in data set [4] came to 4. Further, the Ki in data set [2] was 122 nM.

`NC(=O)[C@]1(c2nc(F)ccc2F)C[C@H]2CC[C@@H](C1)N2C(c1ccccc1Cl)c1ccccc1Cl`: the Ratio in data set [1] came to 0.83. In addition, the Ki in data set [2] was 16 nM.

As for `NC(=O)[C@]1(c2ccccn2)C[C@H]2CC[C@@H](C1)N2C(c1ccccc1Cl)c1ccccc1Cl`, the Ratio in data set [1] came to 0.79. The Ki amounted to 4 nM in data set [2] and 52 nM in data set [3].

For `NC(=O)[C@]1(c2cc(F)c(F)cn2)C[C@H]2CC[C@@H](C1)N2C(c1ccccc1Cl)c1ccccc1Cl`, the Ratio in data set [1] is 0.18. Besides, the Ki was determined as 9 nM in data set [2] and 74 nM in data set [3].

Regarding `COC(=O)c1ccc([C@@]2(C(N)=O)C[C@H]3CC[C@@H](C2)N3C(c2ccccc2Cl)c2ccccc2Cl)nc1`, the fold change (FC) in data set [4] amounted to 4. Moreover, the Ki in data set [2] was more than 1000 nM.

For `COc1ccc([C@@]2(C(N)=O)C[C@H]3CC[C@@H](C2)N3C(c2ccccc2Cl)c2ccccc2Cl)nc1`, the Ratio in data set [1] worked out at 0.19. The Ki in data set [2] stood at 22 nM; in data set [3], 133 nM.

Consider `NC(=O)[C@]1(c2ncc(F)cc2F)C[C@H]2CC[C@@H](C1)N2C(c1ccccc1Cl)c1ccccc1Cl`, for which the Ki in data set [2] amounted to 47 nM.

As usually defined, the EC50 is the concentration giving half of the maximal effect. For `NC(=O)[C@]1(c2ccc(Br)cn2)C[C@H]2CC[C@@H](C1)N2C(c1ccccc1Cl)c1ccccc1Cl`, the Ratio in data set [1] worked out at 0.09. Besides, the fold change (FC) in data set [4] is 4. In addition, the Activity in data set [5] came out at 89%; in data set [8], 75%. For the same compound, the figures for the inhibition constant Ki in data set [2] and in data set [3] were 29 nM and 153 nM, respectively. For the same compound, the values for the EC50 in data set [6] and in data set [7] were 63 nM and 421 nM, respectively.

For the compound `N#Cc1ccc([C@@]2(C(N)=O)C[C@H]3CC[C@@H](C2)N3C(c2ccccc2Cl)c2ccccc2Cl)nc1`, the fold change (FC) in data set [4] worked out at 4. The Ki in data set [2] came out at 75 nM; in data set [3] it was 481 nM.

Regarding `NC(=O)[C@]1(c2ccc(Br)nc2)C[C@H]2CC[C@@H](C1)N2C(c1ccccc1Cl)c1ccccc1Cl`, the values for the Ki in data set [2] and in data set [3] were 13 nM and 46 nM, respectively.

As for `NC(=O)c1ccc([C@@]2(C(N)=O)C[C@H]3CC[C@@H](C2)N3C(c2ccccc2Cl)c2ccccc2Cl)nc1`, the fold change (FC) in data set [4] is 4. In addition, the results for the Ki in data set [2] and in data set [3] were 401 nM and 1320 nM, respectively.

For `CC(=O)N[C@]1(c2ccccn2)C[C@H]2CC[C@@H](C1)N2C(c1ccccc1Cl)c1ccccc1Cl`, the Ratio in data set [1] amounted to 1.97. The same compound registered a fold change (FC) in data set [4] of 52. Further, the Activity in data set [5] was found to be 68%; in data set [8], 84%. For the same compound, the Ki in data set [2] amounted to 6 nM; in data set [3], 312 nM. In addition, the 50% effective concentration (EC50) in data set [6] was found to be 19 nM; in data set [7], 1930 nM.

With `NC(=O)[C@@]1(Cc2ccc(F)cc2)C[C@H]2CC[C@@H](C1)N2C(c1ccccc1Cl)c1ccccc1Cl`, in data set [1], the Ratio is reported as 0.48. Further, the Activity in data set [5] is 107%; in data set [8], 108%. The Ki came out at 3 nM in data set [2] and 85 nM in data set [3]. In addition, the EC50 in data set [6] amounted to 11 nM; in data set [7] it was 540 nM.

With `NC(=O)[C@]1(c2cc(CF)c(F)cn2)C[C@H]2CC[C@@H](C1)N2C(c1ccccc1Cl)c1ccccc1Cl`, the Ratio in data set [1] came to 0.77. Further, the Ki in data set [2] came out at 19 nM; in data set [3], 367 nM.

For `NC(=O)[C@]1(c2cccc(F)n2)C[C@H]2CC[C@@H](C1)N2C(c1ccccc1Cl)c1ccccc1Cl`, the Ratio in data set [1] was determined as 1.06. Further, the fold change (FC) in data set [4] came to 35. Also, the Ki in data set [2] came to 10 nM; in data set [3], 348 nM.

Consider `NC(=O)C1(C2CCCCN2)C[C@H]2CC[C@H](C1)N2C(c1ccccc1Cl)c1ccccc1Cl` (relative stereo), for which the results for the Ki in data set [2] and in data set [3] were 17 nM and 474 nM, respectively.

With `CN(C)[C@]1(c2ccccn2)C[C@H]2CC[C@@H](C1)N2C(c1ccccc1Cl)c1ccccc1Cl`, the Ki came to 42 nM in data set [2] and 840 nM in data set [3].

With `NC(=O)C[C@]1(Cc2ccc(O)cc2)C[C@H]2CC[C@@H](C1)N2C(c1ccccc1Cl)c1ccccc1Cl`, in data set [1], the Ratio amounted to 0.51. The inhibition constant (Ki) in data set [2] amounted to 17 nM.

Compound `NC(=O)[C@]1(c2ccc(N)cn2)C[C@H]2CC[C@@H](C1)N2C(c1ccccc1Cl)c1ccccc1Cl` displayed a fold change (FC) in data set [4] of 4. Besides, the Ki in data set [2] was determined as 31 nM; in data set [3], 205 nM.

Turning to `NC(=O)[C@]1(Cc2ccc(Cl)cc2)C[C@H]2CC[C@@H](C1)N2C(c1ccccc1Cl)c1ccccc1Cl`, the Ratio in data set [1] came out at 0.67. The Ki in data set [2] stood at 10 nM; in data set [3], 284 nM.

For `N[C@]1(Cc2ccc(Cl)cc2)C[C@H]2CC[C@@H](C1)N2C(c1ccccc1Cl)c1ccccc1Cl`, the figures for the Ki in data set [2] and in data set [3] were 36 nM and 447 nM, respectively.

As for `NC(=O)[C@]1(c2cc(F)cc(F)n2)C[C@H]2CC[C@@H](C1)N2C(c1ccccc1Cl)c1ccccc1Cl`, in data set [1], the Ratio was 0.55. For the same compound, the Ki turned out to be 15 nM in data set [2] and 468 nM in data set [3].

As for `NC(=O)[C@]1(c2cccnc2)C[C@H]2CC[C@@H](C1)N2C(c1ccccc1Cl)c1ccccc1Cl`, in data set [1], the Ratio came to 0.4. Besides, the Ki in data set [2] was found to be 3 nM; in data set [3], 71 nM.

Regarding `NC(=O)[C@]1(c2cc(C(=O)O)c(F)cn2)C[C@H]2CC[C@@H](C1)N2C(c1ccccc1Cl)c1ccccc1Cl`, the Ki in data set [2] was more than 1000 nM.
